Laboratory results as given in article PMC3759959, “Design, Synthesis and Antiviral Activity Studies of Schizonepetin Derivatives” (International Journal of Molecular Sciences, 2013).
pIC50: −log10 of the molar value. Read-outs that look alike come from different tables or passages of the source.

Tests used:
HSV-1 virus = assay: Anti HSV-1 CPE inhibition assay in Vero cells; details: for pIC50: read-out: IC50, antiviral activity against HSV-1 virus; for antiviral activity against HSV-1 (in words): in vitro
Vero cells = assay: Cytotoxicity by CPE assay in Vero cells; format: cell-based; details: 72 h
Method: (§1) The cytotoxicity was evaluated by cytopathic effect (CPE) inhibition assay. Vero cells were seeded into 96-well plates. After cells had been incubated for 24 h at 37 °C in 5% CO2, they were exposed to drugs with two-fold serial dilutions. Untreated Vero cells were used as controls. All cultures were incubated again in 5% CO2 at 37 °C for 72 h. The cells were examined microscopically for the cytotoxicity effects. Then TC50 were calculated by the Reed-Muench method.

MDCK cells = assay: Cytotoxicity against MDCK cells by CPE assay; format: cell-based
Method: as §1
The procedures for Anti-H3N2 studies and cytotoxicity against MDCK cells in vitro by CPE inhibition assay were similar to Anti HSV-1 studies and cytotoxicity against Vero cells.

influenza virus H3N2 = assay: Anti-H3N2 CPE inhibition assay in MDCK cells; details: for pIC50: read-out: IC50, antiviral activity against H3N2 virus; for antiviral activity against influenza virus H3N2 (in words): in vitro
[1] = tested on: abdominal capillary permeability; details: cited from earlier work
H1N1 = details: previous study; cited from earlier work
[2] = Human alphaherpesvirus 1, Vero, 72 h
[3] = cytotoxicity, Vero cells, Reed-Muench method

Structure (SMILES) | pIC50 (HSV-1 virus; [2]) | TC50 (Antiviral activity against HSV-1 virus section) (Vero cells; [3]) | TC50 (Antiviral activity against H3N2 virus section) (MDCK cells) | pIC50 (influenza virus H3N2; Influenza A virus, H3N2, MDCK) | antiviral activity against HSV-1 (in words) (HSV-1 virus; CPE inhibition) | pIC50 (HSV-1 virus; CPE inhibition, Vero cells, 30 TCID50, 72 h) | effect on increase of abdominal capillary permeability by HAc [1] | therapeutic effect on the H1N1 infected mice (H1N1) | antiviral activity against influenza virus H3N2 (in words) (influenza virus H3N2; CPE inhibition) | pIC50 (influenza virus H3N2; CPE inhibition, MDCK cells) | TI (TC50/IC50), HSV-1 virus (HSV-1 virus) | TI (TC50/IC50), H3N2 virus (influenza virus H3N2) | TC50 (Antiviral activity against HSV-1 virus section) (Vero cells; African green monkey)
CC1=C2CC[C@@H](C)C[C@]2(OC(=O)c2ccc([N+](=O)[O-])cc2)OC1=O [M9, (6R,7aS)-3,6-Dimethyl-2-Oxo-2,4,5,6,7,7a-Hexahydrobenzofuran-7a-yl 4-Nitrobenzoate] | < 4.94 | 216.0 µM | 216.0 µM | < 4.41 |  |  |  |  |  |  |  |  | 
CO[C@@]12C[C@H](C)CCC1=C(C)C(=O)O2 [M1, (6R,7aR)-7a-Methoxy-3,6-Dimethyl-5,6,7,7a-Tetrahydrobenzofuran-2(4H)-One] | < 4.94 | 366.8 µM | 298.5 µM | < 4.41 |  |  |  |  |  |  |  |  | 
CC1=C2CC[C@@H](C)C[C@@]2(O)OC1=O [Schizonepetin] |  | 834.2 µM | 829.4 µM |  | low antiviral activity | < 4.94 | inhibit the increase of abdominal capillary permeability | obviously positive therapeutic effect | low antiviral activity | < 4.41 |  |  | 
CC1=C2CC[C@@H](C)C[C@]2(OC(=O)c2cccc(Br)c2)OC1=O [M31, (6R,7aS)-3,6-Dimethyl-2-Oxo-2,4,5,6,7,7a-Hexahydrobenzofuran-7a-yl 3-Bromobenzoate] | < 4.94 | 80.3 µM | 80.3 µM | < 4.41 | little effect |  |  |  | little effect |  |  |  | 
CC(=O)O[C@@]12C[C@H](C)CCC1=C(C)C(=O)O2 [M4, (6R,7aR)-3,6-Dimethyl-2-oxo-2,4,5,6,7,7a-Hexahydrobenzofuran-7a-Yl Acetate] | 4.03 | 374.6 µM | 319.2 µM | < 4.41 | obvious antiviral activity |  |  |  |  |  | 4.0 |  | 
CC1=C2CC[C@@H](C)C[C@]2(OC(=O)c2cccc(I)c2)OC1=O [M29, (6R,7aS)-3,6-Dimethyl-2-oxo-2,4,5,6,7,7a-Hexahydrobenzofuran-7a-yl 3-Iodobenzoate] | < 4.94 | 45.4 µM | 71.1 µM | < 4.41 |  |  |  |  | little effect |  |  |  | 
CC1=C2CC[C@@H](C)C[C@]2(OC(=O)c2ccc(I)cc2)OC1=O [M10, (6R,7aS)-3,6-Dimethyl-2-Oxo-2,4,5,6,7,7a-Hexahydrobenzofuran-7a-yl 4-Iodobenzoate] | < 4.94 | 44.2 µM | 41.3 µM | < 4.41 |  |  |  |  | little effect |  |  |  | 
CC1=C2CC[C@@H](C)C[C@]2(OC(=O)c2cccc(F)c2)OC1=O [M28, (6R,7aS)-3,6-Dimethyl-2-Oxo-2,4,5,6,7,7a-Hexahydrobenzofuran-7a-yl 3-Fluorobenzoate] | < 4.94 | 170.4 µM | 96.4 µM | 4.46 |  |  |  |  | high antiviral activity |  |  | 2.8 | 
CC1=C2CC[C@@H](C)C[C@]2(OC(=O)c2ccc(Br)cc2)OC1=O [M33, (6R,7aS)-3,6-Dimethyl-2-Oxo-2,4,5,6,7,7a-Hexahydrobenzofuran-7a-yl 4-Bromobenzoate] | < 4.94 | 80.3 µM | 71.0 µM | 4.86 | little effect |  |  |  | high antiviral activity |  |  | 5.2 | 
CC1=C2CC[C@@H](C)C[C@@]2(OC(=O)c2cccs2)OC1=O [M27, (6R,7aS)-3,6-Dimethyl-2-Oxo-2,4,5,6,7,7a-Hexahydrobenzofuran-7a-yl Thiophene-2-Carboxylate] | < 4.94 | 100.3 µM | 177.4 µM | < 4.41 |  |  |  |  |  |  |  |  | 
CC1=C2CC[C@@H](C)C[C@]2(OC(=O)c2ccccc2)OC1=O [M8, (6R,7aS)-3,6-Dimethyl-2-Oxo-2,4,5,6,7,7a-Hexahydrobenzofuran-7a-yl Benzoate] | < 4.94 | 24.8 µM | 54.2 µM | < 4.41 |  |  |  |  |  |  |  |  | 
CC1=C2CC[C@@H](C)C[C@@]2(OC(=O)c2ccccc2Br)OC1=O [M34, (6R,7aS)-3,6-Dimethyl-2-Oxo-2,4,5,6,7,7a-Hexahydrobenzofuran-7a-yl 2-Bromobenzoate] | 4.77 | 80.3 µM | 71.0 µM | < 4.41 | obvious antiviral activity |  |  |  | little effect |  | 4.7 |  | 
CC1=C2CC[C@@H](C)C[C@@]2(OC(=O)c2cccnc2)OC1=O [M21, (6R,7aS)-3,6-Dimethyl-2-Oxo-2,4,5,6,7,7a-Hexahydrobenzofuran-7a-yl Nicotinate] | < 4.94 | 439.0 µM | 180.5 µM | < 4.41 |  |  |  |  |  |  |  |  | 
CC1=C2CC[C@@H](C)C[C@]2(OC(=O)c2cccc(Cl)c2)OC1=O [M25, (6R,7aS)-3,6-Dimethyl-2-Oxo-2,4,5,6,7,7a-Hexahydrobenzofuran-7a-yl 3-Chlorobenzoate] | < 4.94 | 11.5 µM | 80.8 µM | < 4.41 |  |  |  |  | little effect |  |  |  | 
CC1=C2CC[C@@H](C)C[C@@]2(OC(=O)c2ccc(C(F)(F)F)cc2)OC1=O [M35, (6R,7aS)-3,6-Dimethyl-2-Oxo-2,4,5,6,7,7a-Hexahydrobenzofuran-7a-yl 4-(Trifluoromethyl) Benzoate] | < 4.94 | 82.8 µM | 75.4 µM | 4.53 |  |  |  |  | high antiviral activity |  |  | 2.5 | 
CC1=C2CC[C@@H](C)C[C@]2(OC(=O)c2ccc(F)cc2)OC1=O [M22, (6R,7aS)-3,6-Dimethyl-2-Oxo-2,4,5,6,7,7a-Hexahydrobenzofuran-7a-yl 4-Fluorobenzoate] | < 4.94 | 87.8 µM | 60.5 µM | < 4.41 |  |  |  |  | little effect |  |  |  | 
CC1=C2CC[C@@H](C)C[C@]2(OC(=O)c2ccc(Cl)cc2)OC1=O [M11, (6R,7aS)-3,6-Dimethyl-2-Oxo-2,4,5,6,7,7a-Hexahydrobenzofuran-7a-yl 4-Chlorobenzoate] | < 4.94 | 47.1 µM | 47.1 µM | < 4.41 |  |  |  |  | little effect |  |  |  | 
NC(=O)c1ncn([C@@H]2O[C@H](CO)[C@@H](O)[C@H]2O)n1 [Ribavirin, reference compound] |  |  |  | 2.99 |  |  |  |  |  |  |  |  | 
Nc1nc2c(ncn2COCCO)c(=O)[nH]1 [Aciclovir, reference compound] | 5.31 |  |  |  |  |  |  |  |  |  | >136.4 |  | >666.0 µM
CCO[C@@]12C[C@H](C)CCC1=C(C)C(=O)O2 [M2, (6R,7aR)-7a-Ethoxy-3,6-Dimethyl-5,6,7,7a-Tetrahydrobenzofuran-2(4H)-One] | 4.00 | 246.7 µM | 139.5 µM | < 4.41 | obvious antiviral activity |  |  |  |  |  | 2.5 |  | 
CCC(=O)O[C@@]12C[C@H](C)CCC1=C(C)C(=O)O2 [M5, (6R,7aR)-3,6-Dimethyl-2-oxo-2,4,5,6,7,7a-Hexahydrobenzofuran-7a-yl Propionate] | 4.57 | 66.0 µM | 39.1 µM | < 4.41 | obvious antiviral activity |  |  |  |  |  | 2.5 |  | 
